In patent US20250228239A1, “MOLECULES HAVING PESTICIDAL UTILITY, AND INTERMEDIATES, COMPOSITIONS, AND PROCESSES, RELATED THERETO” (priority 2024, published 2025):
Where two headings read alike, the source gives them in different places.

Tests used:
Assay type in all cases: in vivo
[1] = system: Cabbage Looper (Trichoplusia ni, TRIPNI); experiment: Bioassays on Cabbage Looper (CL), 128-well diet tray assay; settings: Trichoplusia ni
Procedure, shortened: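 One to five second-instar larvae per well on artificial diet surface-treated with 50 μg/cm^2 test molecule (applied in 90:10 acetone-water, dried). Held 5–7 days at 25° C, 14:10 light-dark; percent mortality recorded per well and averaged over eight wells.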

[2] = system: Beet Armyworm (Spodoptera exigua, LAPHEG); experiment: Bioassays on Beet Armyworm (BAW), 128-well diet tray assay; settings: Spodoptera exigua
Procedure, shortened: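 Mortality of second-instar larvae (1–5/well) on artificial diet treated with 50 μg/cm^2 compound, read after 5–7 days at 25° C.; values are means of eight wells.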

[3] = system: Yellow Fever Mosquito (Aedes aegypti, AEDSAE); settings: for YFM rating: Table ABC / ABC-DP rating
Procedure, shortened: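 Mortality after 3 days at room temperature is the read-out, scored well by well and converted to a rating. Test molecules came from 4000 ppm stocks in DMSO, further diluted in 90:10 water/acetone, and were exposed to roughly 1-day-old larvae suspended in liver-powder water.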

[4] = Cabbage Looper, rating class, read-out: CL
[5] = Beet Armyworm, rating class, read-out: BAW
[6] = Yellow Fever Mosquito, rating class
[7] = Cabbage Looper, Table ABC / ABC-DP rating, read-out: CL rating
[8] = Beet Armyworm, Table ABC / ABC-DP rating, read-out: BAW rating
[9] = Table ABC: Biological Results, species CL, read-out: CL
[10] = Table ABC: Biological Results, species BAW, read-out: BAW
[11] = Table ABC: Biological Results, species YFM

| Compound | pest or weed control at 50 µg/cm2 [1, 7] [%] | pest or weed control at 50 µg/cm2 [2, 8] [%] | YFM rating ([3]; Yellow Fever Mosquito) | pest or weed control at 50 µg/cm2 [1, 9] [%] | pest or weed control at 50 µg/cm2 [2, 10] [%] | YFM [3, 11] | also measured |
| --- | --- | --- | --- | --- | --- | --- | --- |
| CC(=O)Nc1cc(NC(=O)c2cc(NC(=O)[C@H]3[C@H](c4ccc(F)c(C(F)(F)F)c4)C3(Cl)Cl)ccc2Cl)c(F)c(F)c1F [F1743, N-(5-Acetamido-2,3,4-trifluorophenyl)-2-chloro-5-((1R,3R)-2,2-dichloro-3-(4-fluoro-3-(trifluoromethyl)phenyl)cyclopropane-1-carboxamido)benzamide] | – | – | – | – | – | – | pest or weed control at 50 µg/cm2 [1, 4]: 50 to 100%; pest or weed control at 50 µg/cm2 [2, 5]: 50 to 100%; YFM [3, 6]: A (80–100) |
| O=C(NNc1ccc([N+](=O)[O-])cc1)c1cc(NC(=O)[C@H]2[C@H](c3cc(Cl)cc(Cl)c3)C2(Cl)Cl)ccc1Cl (relative stereo) [F2555, trans-2,2-Dichloro-N-(4-chloro-3-(2-(4-nitrophenyl)hydrazine-1-carbonyl)phenyl)-3-(3,5-dichlorophenyl)cyclopropane-1-carboxamide] | 50 to 100 | 50 to 100 | A (80–100) | – | – | – | – |
| O=C(NCC(F)(F)C(F)(F)F)c1cc(NC(=O)[C@H]2[C@H](c3ccc(F)c(Cl)c3)C2(Cl)Cl)cc(C(F)(F)F)c1Cl (relative stereo) [F2056, trans-2-Chloro-5-(2,2-dichloro-3-(3-chloro-4-fluorophenyl)cyclopropane-1-carboxamido)-N-(2,2,3,3,3-pentafluoropropyl)-3-(trifluoromethyl)benzamide] | 50 to 100 | 50 to 100 | A (80–100) | – | – | – | – |
| O=C(Nc1c(F)ccc(NC(=O)C(F)(F)F)c1F)c1cc(NC(=O)[C@H]2[C@H](c3ccc(F)c(C(F)(F)F)c3)C2(Cl)Cl)ccc1F [F1560, 5-((1R,3R)-2,2-Dichloro-3-(4-fluoro-3-(trifluoromethyl)phenyl)cyclopropane-1-carboxamido)-N-(2,6-difluoro-3-(2,2,2-trifluoroacetamido)phenyl)-2-fluorobenzamide] | – | – | – | – | – | – | pest or weed control at 50 µg/cm2 [1, 4]: 50 to 100%; pest or weed control at 50 µg/cm2 [2, 5]: 50 to 100%; YFM [3, 6]: A (80–100) |
| O=C(CCF)Nc1c(F)ccc(NC(=O)c2cc(NC(=O)[C@H]3[C@H](c4ccc(F)c(C(F)(F)F)c4)C3(Cl)Cl)ccc2Cl)c1F [F1735, 2-Chloro-5-((1R,3R)-2,2-dichloro-3-(4-fluoro-3-(trifluoromethyl)phenyl)cyclopropane-1-carboxamido)-N-(2,4-difluoro-3-(3-fluoropropanamido)phenyl)benzamide] | – | – | – | – | – | – | pest or weed control at 50 µg/cm2 [1, 4]: 50 to 100%; pest or weed control at 50 µg/cm2 [2, 5]: 50 to 100%; YFM [3, 6]: A (80–100) |
| CCN(C(=O)C(F)F)c1c(F)ccc(NC(=O)c2cc(NC(=O)[C@H]3[C@H](c4ccc(F)c(C(F)(F)F)c4)C3(Cl)Cl)ccc2Cl)c1F [F1452, 2-Chloro-5-((1R,3R)-2,2-dichloro-3-(4-fluoro-3-(trifluoromethyl)phenyl)cyclopropane-1-carboxamido)-N-(3-(N-ethyl-2,2-difluoroacetamido)-2,4-difluorophenyl)benzamide] | – | – | – | – | – | – | pest or weed control at 50 µg/cm2 [1, 4]: 50 to 100%; pest or weed control at 50 µg/cm2 [2, 5]: 50 to 100%; YFM [3, 6]: A (80–100) |
| CC1(C(=O)Nc2c(F)ccc(NC(=O)c3cc(NC(=O)[C@H]4[C@H](c5ccc(F)c(C(F)(F)F)c5)C4(Cl)Cl)ccc3Cl)c2F)CC1(Cl)Cl (stereo partly drawn) [F1273, 2-Chloro-N-(3-(2,2-dichloro-1-methylcyclopropane-1-carboxamido)-2,4-difluorophenyl)-5-((1R,3R)-2,2-dichloro-3-(4-fluoro-3-(trifluoromethyl)phenyl)cyclopropane-1-carboxamido)benzamide] | – | – | – | 50 to 100 | 50 to 100 | A (80–100) | – |
| COCC(=O)Nc1c(F)ccc(NC(=O)c2cc(NC(=O)[C@H]3[C@H](c4cc(Cl)c(Cl)c(Cl)c4)C3(Cl)Cl)ccc2Cl)c1F [F1646, 2-Chloro-5-((1R,3R)-2,2-dichloro-3-(3,4,5-trichlorophenyl)cyclopropane-1-carboxamido)-N-(2,4-difluoro-3-(2-methoxyacetamido)phenyl)benzamide] | – | – | – | – | – | – | pest or weed control at 50 µg/cm2 [1, 4]: 50 to 100%; pest or weed control at 50 µg/cm2 [2, 5]: 50 to 100%; YFM [3, 6]: A (80–100) |
| CN(C(=O)c1cc(NC(=O)[C@H]2[C@H](c3ccc(F)c(C(F)(F)F)c3)C2(Cl)Cl)ccc1Cl)c1ccc(F)c(N)c1F (relative stereo) [F1112, trans-N-(3-amino-2,4-difluorophenyl)-2-chloro-5-(2,2-dichloro-3-(4-fluoro-3-(trifluoromethyl)phenyl)cyclopropane-1-carboxamido)-N-methylbenzamide] | – | – | – | 50 to 100 | 50 to 100 | A (80–100) | – |
| O=C(Nc1ccc(F)c(NS(=O)(=O)c2ccccc2)c1F)c1cc(NC(=O)[C@H]2[C@H](c3ccc(F)c(C(F)(F)F)c3)C2(Cl)Cl)ccc1Cl [F1295, 2-chloro-5-((1R,3R)-2,2-dichloro-3-(4-fluoro-3-(trifluoromethyl)phenyl)cyclopropane-1-carboxamido)-N-(2,4-difluoro-3-(phenylsulfonamido)phenyl)benzamide] | – | – | – | 50 to 100 | 50 to 100 | A (80–100) | – |
| Cc1cc([C@@H]2[C@H](C(=O)Nc3ccc(Cl)c(C(=O)Nc4ccc(F)cc4F)c3)C2(Cl)Cl)cc(C(F)(F)F)c1F (relative stereo) [F1067, cis-2-Chloro-5-(2,2-dichloro-3-(4-fluoro-3-methyl-5-(trifluoromethyl)phenyl)cyclopropane-1-carboxamido)-N-(2,4-difluorophenyl)benzamide] | – | – | – | 50 to 100 | 50 to 100 | A (80–100) | – |
| O=C(NCC(F)(F)F)c1cc(NC(=O)[C@H]2[C@H](c3cc(F)c(Cl)c(Cl)c3)C2(Cl)Cl)ccc1Cl (relative stereo) [F2006, trans-2-Chloro-5-(2,2-dichloro-3-(3,4-dichloro-5-fluorophenyl)cyclopropane-1-carboxamido)-N-(2,2,2-trifluoroethyl)benzamide] | 50 to 100 | 50 to 100 | A (80–100) | – | – | – | – |
| O=C(NNc1ccc(Cl)nn1)c1cc(NC(=O)[C@H]2[C@H](c3cc(Cl)cc(Cl)c3)C2(Cl)Cl)ccc1Cl (relative stereo) [F2506, trans-2,2-Dichloro-N-(4-chloro-3-(2-(6-chloropyridazin-3-yl)hydrazine-1-carbonyl)phenyl)-3-(3,5-dichlorophenyl)cyclopropane-1-carboxamide] | 50 to 100 | 50 to 100 | A (80–100) | – | – | – | – |
| CC(=O)NCCCNC(=O)c1cc(NC(=O)[C@H]2[C@H](c3cc(Cl)cc(Cl)c3)C2(Cl)Cl)ccc1Cl (relative stereo) [F2067, trans-N-(3-Acetamidopropyl)-2-chloro-5-(2,2-dichloro-3-(3,5-dichlorophenyl)cyclopropane-1-carboxamido)benzamide] | 50 to 100 | 50 to 100 | A (80–100) | – | – | – | – |
| C=Cc1cc(F)ccc1NC(=O)c1cc(NC(=O)[C@H]2[C@H](c3cc(Cl)cc(Cl)c3)C2(Cl)Cl)ccc1Cl (relative stereo) [F1312, trans-2-Chloro-5-(2,2-dichloro-3-(3,5-dichlorophenyl)cyclopropane-1-carboxamido)-N-(4-fluoro-2-vinylphenyl)benzamide] | – | – | – | 50 to 100 | 50 to 100 | A (80–100) | – |
| O=C(Nc1ccc(F)cc1F)c1cc(NC(=O)[C@H]2[C@H](c3cc(Cl)cc(S(F)(F)(F)(F)F)c3)C2(Cl)Cl)ccc1Cl (relative stereo) [F1232, trans-2-chloro-5-(2,2-dichloro-3-(3-chloro-5-(pentafluoro-λ^6-sulfanyl)phenyl)cyclopropane-1-carboxamido)-N-(2,4-difluorophenyl)benzamide] | – | – | – | 50 to 100 | 50 to 100 | A (80–100) | – |
| Cc1cc(NC(=O)[C@H]2[C@H](c3ccc(F)c(Cl)c3)C2(Cl)Cl)cc(C(=O)NCCCCl)c1F (relative stereo) [F2032, trans-N-(3-Chloropropyl)-5-(2,2-dichloro-3-(3-chloro-4-fluorophenyl)-cyclopropane-1-carboxamido)-2-fluoro-3-methylbenzamide] | 50 to 100 | 50 to 100 | A (80–100) | – | – | – | – |
| Cc1cc([C@H]2[C@H](C(=O)Nc3ccc(Cl)c(C(=O)Nc4ccc(F)cc4F)c3)C2(Cl)Cl)cc(C(F)(F)F)c1F (relative stereo) [F1066, trans-2-Chloro-5-(2,2-dichloro-3-(4-fluoro-3-methyl-5-(trifluoromethyl)phenyl)cyclopropane-1-carboxamido)-N-(2,4-difluorophenyl)benzamide] | – | – | – | 50 to 100 | 50 to 100 | A (80–100) | – |
| O=C(NCCCCl)c1c(F)ccc(NC(=O)[C@H]2[C@H](c3ccc(F)c(Cl)c3)C2(Cl)Cl)c1F (relative stereo) [F2028, trans-N-(3-Chloropropyl)-3-(2,2-dichloro-3-(3-chloro-4-fluorophenyl)cyclopropane-1-carboxamido)-2,6-difluorobenzamide] | 50 to 100 | 50 to 100 | A (80–100) | – | – | – | – |
